Measurements: ChEMBL document CHEMBL4483862, “Open-source discovery of chemical leads for next-generation chemoprotective antimalarials” (2018)

System: Plasmodium berghei
Test: Luciferase/luciferin-expressing antifolate-resistant parasites were used to infect a culture of HepG2 cells that were pre-incubated with compounds. Infected hepatocytes emit light due to the luciferase reaction. Assay results are presented as the percent inhibition of light emission compared to control. […]
Type: functional
Details: sporozoite; for IC90: read-out: LUCIFERASE INFECTION ASSAY - IC90

Compound: O=c1c(Cl)c2oc3ccccc3nc-2c2ccccc12
- IC50 (HEPG2TOX_HILL_SLOPE 6.69, HEPG2TOX_R_SQUARED 0.668, PBLUC_HILL_SLOPE 2.65, PBLUC_R_SQUARED 0.745, read-out: LUCIFERASE INFECTION ASSAY - IC50): 5.79 µM
- IC90: > 11.7 µM

Compound: Cc1c(C)c(C)c2[nH]c(S)nc2c1C
- IC50 (HEPG2TOX_HILL_SLOPE 6.45, HEPG2TOX_R_SQUARED 0.505, PBLUC_HILL_SLOPE 19.5, PBLUC_R_SQUARED 0.258, read-out: LUCIFERASE INFECTION ASSAY - IC50): 15.4 µM
- IC90: > 16 µM

Compound: NC(Cc1ccc(Cl)cc1)c1csc(Nc2ncccn2)n1 (stereo unspecified)
- IC50 (HEPG2TOX_HILL_SLOPE 6.68, HEPG2TOX_R_SQUARED 0.347, PBLUC_HILL_SLOPE 658, PBLUC_R_SQUARED 0.395, read-out: LUCIFERASE INFECTION ASSAY - IC50): 5.29 µM
- IC90: 5.31 µM

Compound: CSc1sc(C(=O)NN=C(C)C)c2c1C(O)CCC2 (stereo unspecified)
- IC50 (HEPG2TOX_HILL_SLOPE 6.67, HEPG2TOX_R_SQUARED 0.767, PBLUC_HILL_SLOPE 1.8, PBLUC_R_SQUARED 0.584, read-out: LUCIFERASE INFECTION ASSAY - IC50): 10.2 µM
- IC90: > 11.1 µM

Compound: CCOc1cc(/C=C/c2nc3cc(C)c(C)cc3s2)ccc1O
- IC50 (HEPG2TOX_HILL_SLOPE 6.63, HEPG2TOX_R_SQUARED 0.787, PBLUC_HILL_SLOPE 3.12, PBLUC_R_SQUARED 0.499, read-out: LUCIFERASE INFECTION ASSAY - IC50): 6.52 µM
- IC90: > 10 µM

Compound: CCCCNC(=O)c1c(NC(=O)C(C)Oc2ccccc2)nc2ccc(C)cn12 (stereo unspecified)
- IC50 (HEPG2TOX_HILL_SLOPE 6.71, HEPG2TOX_R_SQUARED 0.423, PBLUC_HILL_SLOPE 12, PBLUC_R_SQUARED 0.638, read-out: LUCIFERASE INFECTION ASSAY - IC50): 7.31 µM
- IC90: > 8.37 µM

Compound: O=S(=O)(c1ccc2oc(Nc3ccc(Cl)c(C(F)(F)F)c3)nc2c1)N1CCOCC1
- IC50 (HEPG2TOX_HILL_SLOPE 6.56, HEPG2TOX_R_SQUARED 0.393, PBLUC_HILL_SLOPE 2.74, PBLUC_R_SQUARED 0.701, read-out: LUCIFERASE INFECTION ASSAY - IC50): 4.51 µM
- IC90: > 10 µM

Compound: O=C(Nc1ccc(OC(F)(F)F)cc1)Nc1ccc(Sc2ccc(Cl)cc2)nc1
- IC50 (HEPG2TOX_HILL_SLOPE 6.6, HEPG2TOX_R_SQUARED 0.793, PBLUC_HILL_SLOPE 3.54, PBLUC_R_SQUARED 0.066, read-out: LUCIFERASE INFECTION ASSAY - IC50): 6.05 µM
- IC90: > 7.5 µM

Compound: COC(=O)c1ccc(C(=O)Nc2nc3ccc(C)cn3c2C(=O)NC2CCCCC2)cc1
- IC50 (HEPG2TOX_HILL_SLOPE 6.71, HEPG2TOX_R_SQUARED 0.117, PBLUC_HILL_SLOPE 12.8, PBLUC_R_SQUARED 0.0177, read-out: LUCIFERASE INFECTION ASSAY - IC50): 7.03 µM
- IC90: > 7.6 µM

Compound: CCc1cccc2c(/C=C(\C#N)c3nc4ccccc4[nH]3)c[nH]c12
- IC50 (HEPG2TOX_HILL_SLOPE 6.57, HEPG2TOX_R_SQUARED 0.521, read-out: LUCIFERASE INFECTION ASSAY - IC50): > 10 µM
- IC90: > 10 µM

Compound: COc1ccc(Cl)cc1C(=O)NCCC(c1ccccc1)c1ccccc1
- IC50 (HEPG2TOX_HILL_SLOPE 6.56, HEPG2TOX_R_SQUARED 0.368, PBLUC_HILL_SLOPE 3.72, PBLUC_R_SQUARED 0.314, read-out: LUCIFERASE INFECTION ASSAY - IC50): 5.39 µM
- IC90: > 8.69 µM

Compound: Cn1cc(CN2CCc3c(c(C(=O)NCc4nccs4)nn3Cc3ccccc3)C2)c2ccccc21
- IC50 (HEPG2TOX_HILL_SLOPE 6.66, HEPG2TOX_R_SQUARED 0.254, PBLUC_HILL_SLOPE 4.38, PBLUC_R_SQUARED 0.819, read-out: LUCIFERASE INFECTION ASSAY - IC50): 3.47 µM
- IC90: 5.73 µM

Compound: CNc1ccccc1C(C)(C)c1cc(NC(=O)C2CCCC2)sc1C(=O)c1ccc(Cl)cc1
- IC50 (HEPG2TOX_HILL_SLOPE 6.51, HEPG2TOX_R_SQUARED 0.0707, read-out: LUCIFERASE INFECTION ASSAY - IC50): > 10 µM
- IC90: > 10 µM

Compound: CC1C/C(=N\Nc2cc(Cl)cc(Cl)c2)c2cc(Cl)ccc2S1 (stereo unspecified)
- IC50 (HEPG2TOX_HILL_SLOPE 6.52, HEPG2TOX_R_SQUARED 0.251, PBLUC_HILL_SLOPE 17, PBLUC_R_SQUARED 0.35, read-out: LUCIFERASE INFECTION ASSAY - IC50): 8.47 µM
- IC90: > 8.88 µM

Compound: CCOC(=O)c1ccc(N2C(=O)c3ccccc3C(C=NNC(=O)c3ccoc3C)C2=O)c(Cl)c1 (stereo unspecified)
- IC50 (HEPG2TOX_HILL_SLOPE 6.47, HEPG2TOX_R_SQUARED 0.622, PBLUC_HILL_SLOPE 28.4, PBLUC_R_SQUARED 0.423, read-out: LUCIFERASE INFECTION ASSAY - IC50): 9.76 µM
- IC90: > 10 µM

Compound: Fc1ccc2c(c1)/C(=N\Nc1nc3ccccc3[nH]1)CCS2
- IC50 (HEPG2TOX_HILL_SLOPE 6.62, HEPG2TOX_R_SQUARED 0.538, PBLUC_HILL_SLOPE 9.53, PBLUC_R_SQUARED 0.0234, read-out: LUCIFERASE INFECTION ASSAY - IC50): 8.49 µM
- IC90: > 10 µM

Compound: CNc1nc2cnc(Nc3cccc(C)c3)cc2n1Cc1ccc(OC)c(OC)c1
- IC50 (HEPG2TOX_HILL_SLOPE 6.56, HEPG2TOX_R_SQUARED 0.678, read-out: LUCIFERASE INFECTION ASSAY - IC50): > 10 µM
- IC90: > 10 µM

Compound: O=C(/C=C/c1ccccc1)c1ccc(-n2nncc2-c2ccccc2)cc1
- IC50 (HEPG2TOX_HILL_SLOPE 6.47, HEPG2TOX_R_SQUARED 0.294, read-out: LUCIFERASE INFECTION ASSAY - IC50): > 10 µM
- IC90: > 10 µM

Compound: CC(Oc1ccc(C(=O)c2ccc(F)cc2)cc1)C(=O)NC1(C#N)CCCCC1 (stereo unspecified)
- IC50 (HEPG2TOX_HILL_SLOPE 6.49, HEPG2TOX_R_SQUARED 0.548, PBLUC_HILL_SLOPE 2.92, PBLUC_R_SQUARED 0.383, read-out: LUCIFERASE INFECTION ASSAY - IC50): 7.61 µM
- IC90: > 10 µM

Compound: Cn1ccnc1S/C(=C/C=C(C#N)C#N)c1ccc(Cl)cc1
- IC50 (HEPG2TOX_HILL_SLOPE 6.6, HEPG2TOX_R_SQUARED 0.647, PBLUC_HILL_SLOPE 3.43, PBLUC_R_SQUARED 0.702, read-out: LUCIFERASE INFECTION ASSAY - IC50): 5.57 µM
- IC90: > 10.1 µM

Compound: COc1ccccc1C(CCNCc1ccc(F)cc1)c1ccco1 (stereo unspecified)
- IC50 (HEPG2TOX_HILL_SLOPE 6.69, HEPG2TOX_R_SQUARED 0.485, PBLUC_HILL_SLOPE 6.64, PBLUC_R_SQUARED 0.691, read-out: LUCIFERASE INFECTION ASSAY - IC50): 1.19 µM
- IC90: 1.66 µM

Compound: COc1ccc(Nc2cc3c(cn2)cc(-c2ccc(C(=O)N(C)C)cc2)n3Cc2ccccc2)cc1
- IC50 (HEPG2TOX_HILL_SLOPE 6.65, HEPG2TOX_R_SQUARED 0.257, PBLUC_HILL_SLOPE 26.3, PBLUC_R_SQUARED 0.641, read-out: LUCIFERASE INFECTION ASSAY - IC50): 8.59 µM
- IC90: 9.34 µM

Compound: Cc1ccc(-c2nc(NC(=O)c3ccn(C)c(=O)c3)sc2-c2ccc(C)cc2)cc1
- IC50 (HEPG2TOX_HILL_SLOPE 6.56, HEPG2TOX_R_SQUARED 0.678, PBLUC_HILL_SLOPE 73.6, 3.22, PBLUC_R_SQUARED 0.772, 0.348, read-out: LUCIFERASE INFECTION ASSAY - IC50): 3.76 µM
- IC90: 5.86 µM

Compound: CC(C)(C)OC(=O)N1CCc2nc(NC(=O)c3ccc4nc[nH]c4c3)sc2C1
- IC50 (HEPG2TOX_HILL_SLOPE 6.67, HEPG2TOX_R_SQUARED 0.917, read-out: LUCIFERASE INFECTION ASSAY - IC50): > 10 µM
- IC90: > 10 µM

Compound: CC1=CC(=O)N(c2ccc(F)c(Cl)c2)C1=O
- IC50 (HEPG2TOX_HILL_SLOPE 6.55, HEPG2TOX_R_SQUARED 0.196, PBLUC_HILL_SLOPE 2.8, PBLUC_R_SQUARED 0.561, read-out: LUCIFERASE INFECTION ASSAY - IC50): 8.94 µM
- IC90: > 13.8 µM

Compound: NC(=O)c1c(NC(=O)NCc2cccnc2)sc2c1CCC2
- IC50 (HEPG2TOX_HILL_SLOPE 6.58, HEPG2TOX_R_SQUARED 0.0674, read-out: LUCIFERASE INFECTION ASSAY - IC50): > 10.4 µM
- IC90: > 10.4 µM

Compound: Oc1ccccc1/C=N/Nc1cccc(C(F)(F)F)c1
- IC50 (HEPG2TOX_HILL_SLOPE 6.57, HEPG2TOX_R_SQUARED 0.439, PBLUC_HILL_SLOPE 2.9, PBLUC_R_SQUARED 0.288, read-out: LUCIFERASE INFECTION ASSAY - IC50): > 11.8 µM
- IC90: > 11.8 µM

Compound: NS(=O)(=O)c1ccc(CCNc2nn3c(-c4cccs4)cnc3s2)cc1
- IC50 (HEPG2TOX_HILL_SLOPE 6.48, HEPG2TOX_R_SQUARED 0.0577, read-out: LUCIFERASE INFECTION ASSAY - IC50): > 8.14 µM
- IC90: > 8.14 µM

Compound: CSc1nc2c(c(=O)n(C)c(=O)n2C)n1Cc1cccc(C(F)(F)F)c1
- IC50 (HEPG2TOX_HILL_SLOPE 6.71, HEPG2TOX_R_SQUARED 0.561, read-out: LUCIFERASE INFECTION ASSAY - IC50): > 8.59 µM
- IC90: > 8.59 µM

Compound: Cc1cc2cc(Nc3ccc(S(=O)(=O)NC(C)(C)C)cc3[N+](=O)[O-])ccc2[nH]1
- IC50 (HEPG2TOX_HILL_SLOPE 6.66, HEPG2TOX_R_SQUARED 0.674, PBLUC_HILL_SLOPE 2.21, PBLUC_R_SQUARED 0.655, read-out: LUCIFERASE INFECTION ASSAY - IC50): 4.89 µM
- IC90: > 10 µM

Compound: CCCCNC(=O)c1c(NC(=O)c2ccccc2C(F)(F)F)nc2ccccn12
- IC50 (HEPG2TOX_HILL_SLOPE 6.6, HEPG2TOX_R_SQUARED 0.306, PBLUC_HILL_SLOPE 21.5, PBLUC_R_SQUARED 0.838, read-out: LUCIFERASE INFECTION ASSAY - IC50): 7.33 µM
- IC90: 8.11 µM

Compound: c1ccc(C(CCNCc2ccco2)c2ccco2)cc1 (stereo unspecified)
- IC50 (HEPG2TOX_HILL_SLOPE 6.65, HEPG2TOX_R_SQUARED 0.638, PBLUC_HILL_SLOPE 2.47, PBLUC_R_SQUARED 0.734, read-out: LUCIFERASE INFECTION ASSAY - IC50): 4.89 µM
- IC90: > 11.7 µM

Compound: Cc1cccc(-c2cc(C(=O)Nc3cccc(Cl)c3)[nH]n2)c1O
- IC50 (HEPG2TOX_HILL_SLOPE 6.46, HEPG2TOX_R_SQUARED 0.463, PBLUC_HILL_SLOPE 41.9, PBLUC_R_SQUARED 0.193, read-out: LUCIFERASE INFECTION ASSAY - IC50): 9.38 µM
- IC90: 9.89 µM
